Results reported in US20210069147A1, “PHARMACEUTICAL COMBINATION AND USES THEREOF” (BIONOMICS LIMITED, priority 2015, published 2021).

Tests used:
CT26 murine colon tumor = assay: Efficacy in syngeneic CT26 murine colon tumor model; type: in vivo, mouse (Balb/c); conditions: Day 11; Balb/c mice with s.c. CT26 tumors; BNC105 10 mg/kg Days 1 and 8; anti-CTLA4 (Clone 9D9) 10 mg/kg i.p. Days 2, 5, 9
Method: The present inventors conducted a separate study to determine the efficacy of BNC105 in combination with the immune-oncology therapeutic antibody anti-CTLA4 in the syngeneic CT26 murine colon tumor model. BNC105 (10 mg/kg) was administered on Days 1 and 8, the anti-CTLA4 antibody (Clone 9D9) was administered at 10 mg/kg i.p. on Days 2, 5, and 9. Balb/c mice were inoculated subcutaneously with C1′26 cells. When tumors reached an average volume of approximately 135 mm3 animals were randomised into 5 groups of 10 mice per group.
1. Saline+PBS control 2. Saline+IgG2b isotype control, antibody 3. BNC105P+IgG2b isotype control antibody 4. Saline+anti-CTLA4 antibody 5. BNC105P+anti-CTLA4 antibody
The in-life part of this study was completed on Day 12 of the treatment period due to tumor sizes in the control groups reaching ethical limits. Tumors were collected for both FAGS analysis and for histology. FAGS analysis and histology arc currently in progress and aim to identify changes of immune T-cell populations following treatment.

MC38 murine colon tumor = assay: Efficacy in syngeneic MC38 murine colon tumor model; type: in vivo, mouse (C57/BL6); conditions: Day 17; C57/BL6 mice with s.c. MC38 tumors; BNC105P 10 mg/kg i.v. Day 1, 8, 15; anti-PD1 (Clone RMP1-14) 3.5 mg/kg i.p. Day 1, 4, 8, 12, 16
Method: The present inventors conducted a study to determine the efficacy of BNC105 in combination with the immunotherapeutic anti-PD1 antibody in the syngeneic MC38 murine colon tumor model. BNC105P was administered at 10 mg/kg i.v., on Day 1, 8 and 15, anti-PD1 antibody (Clone RMP1-14) was administered at 3.5 mg/kg i.p. on Day 1, 4, 8, 12 and 16. C57/BL6 mice were inoculated subcutaneously with MC38 cells. When tumors reached a volume of approximately 100-150 mm3 animals were randomised into groups of 10 mice per group.
1. Saline+PBS control 2. Saline+IgG2a isotypc control antibody 3. BNC105P+IgG2a isotype control antibody 4. Saline+anti-PD1 antibody 5. BNC105P+anti-PD1 antibody
The in-life pan of this study was completed on Day 18 of the treatment period due to tumor size in the control groups reaching the ethical limit. Tumors and blood were collected for FACS analysis and also tumors were collected for histology. FACS analysis and histology is currently under way and is aimed at identifying changes of immune T-cell populations following treatment.

[1] = test system: tumor infiltrating macrophages (CD11b+); assay: Number of tumor infiltrating macrophages; type: in vivo; conditions: after treatment, monotherapy and combination (FIG. 5)
Excerpt: FIG. 5. Reduction in the number of tumor infiltrating macrophages (CD11b+) after treatment with BNC105 (monotherapy and combination).
This reduction would dramatically change the immune environment potentially releasing the immune dampening effect of macrophage subsets.

IL-12 subunit p40 = assay: Plasma biomarker analysis, Phase II mesothelioma trial (Multi-Analyte Profile); type: in vivo, human; conditions: patients, BNC105 16 mg/m2 monotherapy
Method: FIG. 4. Changes in levels of IL-12 p40 and II: 10 following administration with BNC105. Phase II Mesothelioma trial BNC105 (16 mg/m2) number of patients=19. Blood draws were pre-specified and optional. Patients receiving BNC105 alone received blood draws prior to BNC105 administration and 3 hours following administration. Plasma samples were used to determine exploratory analytes using Multi-Analyte Profile (MAP) technology (Myriad RBM). Graph showing % change from baseline. Percent change was calculated as analyse plasma concentration (post-baseline)/baseline*100. Mean±SEM shown on graph.
The balance between pro-inflammatory and anti-inflammatory signals provided by different immune cell populations is crucial for normal physiology and the suppression of cancer development. By altering this homeostasis an opportunity is provided for the immune system to alter the way it responds. Biomarker analysis on patient samples was conducted from a Phase II BNC105 monotherapy mesothelioma trial. […] The immune-modulatory cytokine IL-12 subunit p40, a key member of the IL-12 cytokine family, has emerged as a potent inducer of antitumor immunity. IL-12 subunit p40 is secreted by activated macrophages and serves as an essential inducer of Th1 cells development.

[2] = test system: tumor vasculature (Renca); assay: Vascular stain perfusion in murine orthotopic model of Renal Cancer (Renca); type: in vivo; conditions: perfusion of a vascular stain
Excerpt: In a murine orthotopic model of Renal Cancer (Renca) the present inventors have shown using perfusion of a vascular stain that tumor blood vessels arc obliterated after BNC105 treatment compared to normal tissue which remains unaffected.

IFNγ = assay: Tumoral levels of IFNγ; type: in vivo; conditions: 16 mg/kg BNC105 versus saline (FIG. 3)
Method: FIG. 3. Tumoral levels of IFNγ in animals administered with saline or 16 mg/kg BNC105.
(§1) BNC105 primes the immunogenic potential of a tumor with increased tumoral IFNγ content compared to control treated animals (FIG. 3). IFNγ is secreted from CD4+ Th1, CD8+ and Th0 cells and activated NK cells.

CD3+/CD8+ cells = assay: Tumoral CD3+/CD8+ cells; conditions: in vivo
Excerpt: as §1

| normal tissue vasculature after treatment [2] | SMILES | tumor growth inhibition (CT26 murine colon tumor) [%] | tumor growth inhibition (TGI) (MC38 murine colon tumor) [%] | number of tumor infiltrating macrophages (CD11b+) [1] | plasma IL-12 subunit p40 post administration (IL-12 subunit p40; 3 hours following administration versus baseline) | plasma IL-12 subunit p40 at Day 8 post dosing (IL-12 subunit p40; Day 8) | tumor blood vessels after treatment [2] | tumoral IFNγ content compared to control treated animals (IFNγ) | change in tumoral CD3+/CD8+ cells (CD3+/CD8+ cells) |
| --- | --- | --- | --- | --- | --- | --- | --- | --- | --- |
| – | COc1cc(C(=O)c2c(C)oc3c(OP(=O)([O-])[O-])c(OC)ccc23)cc(OC)c1OC.[Na+].[Na+] [BNC105P, di sodium [6-methoxy-2-methyl-3-(3,4,5-trimethoxybenzoyl)-1-benzofuran-7-yl] phosphate] | 27 | 40 | – | – | – | – | – | – |
| unaffected | COc1cc(C(=O)c2c(C)oc3c(O)c(OC)ccc23)cc(OC)c1OC [BNC105, 2-methyl-7-hydroxy-3-(3,4,5-trimethoxybenzoyl)-6-methoxybenzofuran] | 27 | 40 | significant reduction | significantly increases | remains elevated | obliterated | increased | No change |
